In PMC2533696 (PLoS Pathogens, 2008) one finds IC50 and Ki data, which are given here for two compounds.

Where a SMILES comes first, the peptide text is derived from it. Where no end group is shown, it is not given here.

The target of test [1] is Clostridium botulinum neurotoxin serotype A truncated light chain (residues 1 to 424), Balc424 (Clostridium botulinum, UniProt P0DPI0). As to the kind of experiment: biochemical. The conditions noted are these: 37°C, 30 min.
The target in the next test is BoNT/A. The settings on record: read-out: Kι; cited from earlier work.

Sequence of Clostridium botulinum neurotoxin serotype A truncated light chain (residues 1 to 424), Balc424 (P0DPI0 1-424 limits assumed): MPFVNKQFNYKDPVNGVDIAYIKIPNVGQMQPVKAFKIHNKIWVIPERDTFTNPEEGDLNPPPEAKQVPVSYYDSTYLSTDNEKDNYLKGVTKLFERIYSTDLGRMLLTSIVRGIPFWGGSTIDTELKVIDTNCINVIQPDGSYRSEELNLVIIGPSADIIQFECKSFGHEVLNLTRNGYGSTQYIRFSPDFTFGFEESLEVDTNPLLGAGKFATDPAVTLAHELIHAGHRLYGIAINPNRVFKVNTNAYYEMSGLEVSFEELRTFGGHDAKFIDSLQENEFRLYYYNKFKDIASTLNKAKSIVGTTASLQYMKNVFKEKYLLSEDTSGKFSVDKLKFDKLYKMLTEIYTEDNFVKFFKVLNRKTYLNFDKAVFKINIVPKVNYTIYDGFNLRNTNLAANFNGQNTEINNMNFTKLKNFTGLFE

In the case of `CSCC[C@H](NC(=O)[C@H](CCCCN)NC(=O)[C@@H](NC(=O)[C@H](C)NC(=O)[C@H](CCCNC(=N)N)NC(=O)[C@@H](N)CCC(N)=O)[C@@H](C)O)C(N)=O` [QRATKM] (H-QRATKM-NH2), in test [1], the midpoint of inhibition, the IC50, lay at 133 µM.
On to Ac-CRATKML, for which, on BoNT/A, the Ki is 1.9 µM.

Usually IC50 stands for the concentration that gives 50% inhibition. High values mean a need for much substance, low ones inhibition by little substance.
